The source of these data is patent publication US20240173333A1, “Treating Alagille Syndrome (ALGS)” (priority 2022, published 2024).

Type in all cases: in vivo, human
Data set [1] deals with patients with Alagille syndrome (ALGS). Description: ASSERT phase 3 trial: ObsRO scratching score and pruritus response. As to conditions: 120 μg/kg/day. As for the experimental part:
Odevixibat is an orally administered, potent, luminally restricted, selective IBAT inhibitor in development to treat cholestatic liver diseases. In this phase 3, double-blind, randomized, 24-week trial (ASSERT), the efficacy and safety of odevixibat versus placebo was evaluated in patients with Alagille Syndrome (ALGS). The efficacy of odevixibat in patients with ALGS was evaluated in a 24-week, randomized, double-blind, placebo-controlled trial conducted in 52 patients with a confirmed diagnosis of ALGS (NCT04674761; ASSERT). Patients were randomized 2:1 to receive odevixibat 120 μg/kg/day or placebo.
The study consisted of a screening phase and parallel-design treatment period. Two screening visits occurred: the first took place during days −56 to −21 prior to the first dose of study drug and the second occurred during days −49 to ˜14. On day 0, all eligible patients were randomized 2:1 to oral, 120 μg/kg/day odevixibat or once-daily placebo. Eligibility for randomization was determined using pruritus or scratching reports from observer reported outcome (ObsRO)/patient reported outcome (PRO) data for evaluation of itching (PRO), scratching (ObsRO), and sleep disturbance (PRO and ObsRO) in the 14 days before Study Day 1, clinical genetic confirmation of diagnosis, and the liver biochemistry evaluations from the previous screening visits. After written informed consent was obtained, an Interactive Web Response System (IWRS) was used to assign patients to treatment. The randomization codes were computer generated by Albireo or a qualified randomization vendor.
A single primary endpoint was evaluated. The primary endpoint in this study was the change from baseline in scratching to Month 6 (Weeks 21 to 24) as measured by the observer-reported outcome (ObsRO) instrument.
Itching, Scratching, and Sleep Parameters. Itching, observed scratching, and sleep disturbance were recorded twice each day via eDiary. Patients and/or caregivers were instructed to complete the eDiary every day in the morning after the patient woke and in the evening just before the patient went to sleep throughout the study. The eDiary included ObsRO and PRO items. The PRO items assessed severity of itch, aspects of sleep disturbance (morning diary only), and tiredness. The ObsRO items assessed severity of observed scratching, aspects of observed sleep disturbance (morning diary only), and signs of tiredness (evening diary only). […]
Statistical Analyses. […] After a minimum of 18 patients had completed the Week 16 visit, the pooled SD of change from baseline to Month 4 (Weeks 13-16 assessments) and available change from baseline to Month 6 (Weeks 21-24 assessments) in average monthly scratching score was calculated by an independent statistician to assess the need for sample size re-estimation. […]

For data set [2] the test system is unchanged. In words: ASSERT-EXT open-label extension: ObsRO pruritus response. To be noted: placebo-odevixibat group; weeks 9-12 of ASSERT-EXT; 120 μg/kg/day. As for the experimental part: ASSERT-EXT is a Phase 3, multi-center, open-label extension study designed to evaluate the long-term safety and efficacy of 120 μg/kg/day odevixibat in relieving pruritus in patients with ALGS. Patients who participated in the ASSERT trial (see Example 1) and met eligibility criteria for the ASSERT trial were eligible to participate. The duration of the treatment period is 72 weeks, followed by a 4-week Safety Follow-up Period. Clinic visits occur every 4 to 12 weeks. […]
Day 1 coincided with Week 24 in the ASSERT trial; however, if this was not possible due to logistic issues, patients enrolled in the ASSERT-EXT trial within 28 days of completion of the ASSERT trial. […] Two groups were analyzed up to an interim cut-off date of Sep. […]
Outcomes evaluated include pruritus, serum BAs, sleep, and treatment-emergent adverse events (TEAEs). The Primary Efficacy Endpoint is the change from baseline in scratching through Week 72 as measured by the Albireo ObsRO caregiver instrument.
Itching, Scratching, and Sleep Score. Itching, observed scratching, and sleep disturbance were recorded twice each day via eDiary. […] When logistically feasible, the same parent or caregiver recorded in the eDiary, and changes to the parent or caregiver who is performing the recording should be minimized. […] The caregiver recording in the eDiary was recorded. […]

Data set [3] has the same test system. In words: ASSERT-EXT open-label extension: safety, TEAEs. As for the experimental part: ASSERT-EXT is a Phase 3, multi-center, open-label extension study designed to evaluate the long-term safety and efficacy of 120 μg/kg/day odevixibat in relieving pruritus in patients with ALGS. Patients who participated in the ASSERT trial (see Example 1) and met eligibility criteria for the ASSERT trial were eligible to participate. The duration of the treatment period is 72 weeks, followed by a 4-week Safety Follow-up Period. Clinic visits occur every 4 to 12 weeks. Patients who wish to continue receiving odevixibat after 72 weeks will have the opportunity to remain on treatment in an optional extension period with visits every 16 weeks until the drug is commercially available, provided continued use is supported by the risk-benefit profile, the patient has not been previously withdrawn or discontinued from the study, and the study is not terminated by the Sponsor. The 4-week Safety Follow-up Period will not occur for those who remain on treatment in the optional extension period.
Day 1 coincided with Week 24 in the ASSERT trial; however, if this was not possible due to logistic issues, patients enrolled in the ASSERT-EXT trial within 28 days of completion of the ASSERT trial. All patients in the ASSERT-EXT trial receive odevixibat 120 μg/kg/day. Two groups were analyzed up to an interim cut-off date of Sep. 9, 2022: treatment-naïve patients who received placebo in ASSERT (i.e., “placebo-odevixibat”) and patients who received odevixibat in ASSERT (i.e., “odevixibat-odevixibat”).
Safety Analysis. The primary safety analysis for this study included the incidence of total treatment emergent AEs (TEAEs) and TEAEs categorized by causality, severity, and seriousness assessments made by the investigator. Trends in safety were also evaluated for the following assessments: Physical examinations; Concomitant medications; Vital signs; Laboratory test results (including clinical chemistry, hematology, urinalysis, AFP, vitamins A, E, and 25-hydroxy vitamin D, and INR); Liver ultrasound and elastography (where available); and Discontinuations due to Aes.

Molecules are shown by their SMILES.

As to `CCCCC1(CCCC)CN(c2ccccc2)c2cc(SC)c(OCC(=O)N[C@@H](C(=O)N[C@@H](CC)C(=O)O)c3ccc(O)cc3)cc2S(=O)(=O)N1` [odevixibat, 1,1-dioxo-3,3-dibutyl-5-phenyl-7-methylthio-8-(N-{(R)-α-[N-((S)-1-carboxypropyl)carbamoyl]-4-hydroxybenzyl}carbamoylmethoxy)-2,3,4,5-tetrahydro-1,2,5-benzothiadiazepine], in data set [1] (baseline to Weeks 21-24, 34 patients), the “LS mean change from baseline in scratching score (ObsRO)” value is −1.69 points. The “improvement in pruritus (mean monthly ObsRO scratching score) observed as early as” value in data set [1] (onset of effect) was 1 week. Also, the “percentage of patients who were pruritus responders (≥1-point reduction in monthly scratching score from baseline)” value in data set [1] (week 12) worked out at 74%. In data set [1] (week 24 (weeks 21-24), n=35), the “percentage of patients who were pruritus responders (≥1-point reduction in monthly scratching score from baseline)” value was 80%. Moreover, the “patients achieving a pruritus reduction ≥1-point from baseline” value in data set [2] amounted to 70%. Further, the “Serious TEAEs” value in data set [3] (2/49 patients, interim cut-off) turned out to be 4%. Also, the “drug-related serious TEAEs or TEAEs leading to discontinuation or dose reduction” value in data set [3] (interim cut-off) is reported as “No drug-related serious TEAEs or TEAEs leading to discontinuation or dose reduction”. Also, in data set [3] (n=49, interim cut-off), the “incidence of drug-related diarrhea” value stood at 4% and the “incidence of treatment-emergent diarrhea” value is listed as 16%. In data set [3] (treatment for ≥24 weeks), the tolerability result is on record as “well tolerated”.
